Reference: publication PMC5605198, “MELK is not necessary for the proliferation of basal-like breast cancer cells” (eLife, 2017)
pIC50: −log10 of the molar value. Like-named read-outs stand apart in the source and are kept apart here.

What was measured:
HCC70 = test: Cell proliferation assay (CellTiter-Glo); settings: Homo sapiens
GSK3 beta = GSK3 beta (Homo sapiens, UniProt P49841); test: ICKP radiometric kinase assay; type: biochemical; settings: read-out: % AR (% kinase activity remaining)
WNK1 = WNK1 (Homo sapiens, UniProt Q9H4A3); test: ICKP radiometric kinase assay; type: biochemical; settings: read-out: % AR (% kinase activity remaining)
TAK1 = TAK1 (Homo sapiens, UniProt O43318); test: ICKP radiometric kinase assay; type: biochemical; settings: read-out: % AR (% kinase activity remaining)
MNK2 = MNK2 (Homo sapiens, UniProt Q9HBH9); test: ICKP radiometric kinase assay; type: biochemical; settings: read-out: % AR (% kinase activity remaining)
HIPK2 = HIPK2 (Homo sapiens, UniProt Q9H2X6); test: ICKP radiometric kinase assay; type: biochemical; settings: read-out: % AR (% kinase activity remaining)
CDK2-Cyclin A = CDK2-Cyclin A (Homo sapiens, UniProt P24941); test: ICKP radiometric kinase assay; type: biochemical; settings: read-out: % AR (% kinase activity remaining)
HER4 = HER4 (Homo sapiens, UniProt Q15303); test: ICKP radiometric kinase assay; type: biochemical; settings: read-out: % AR (% kinase activity remaining)
MSK1 = MSK1 (Homo sapiens, UniProt O75582); test: ICKP radiometric kinase assay; type: biochemical; settings: read-out: % AR (% kinase activity remaining)
MST4 = MST4 (Homo sapiens, UniProt Q9P289); test: ICKP radiometric kinase assay; type: biochemical; settings: read-out: % AR (% kinase activity remaining)
ZAP70 = ZAP70 (Homo sapiens, UniProt P43403); test: ICKP radiometric kinase assay; type: biochemical; settings: read-out: % AR (% kinase activity remaining)
SIK3 = SIK3 (Homo sapiens, UniProt Q9Y2K2); test: ICKP radiometric kinase assay; type: biochemical; settings: read-out: % AR (% kinase activity remaining)
HIPK3 = HIPK3 (Homo sapiens, UniProt Q9H422); test: ICKP radiometric kinase assay; type: biochemical; settings: read-out: % AR (% kinase activity remaining)
ABL = ABL (Homo sapiens, UniProt P00519); test: ICKP radiometric kinase assay; type: biochemical; settings: read-out: % AR (% kinase activity remaining)
VEGFR1 = VEGFR1 (Homo sapiens, UniProt P17948); test: ICKP radiometric kinase assay; type: biochemical; settings: read-out: % AR (% kinase activity remaining)
TLK1 = TLK1 (Homo sapiens, UniProt Q9UKI8); test: ICKP radiometric kinase assay; type: biochemical; settings: read-out: % AR (% kinase activity remaining)
MNK1 = MNK1 (Homo sapiens, UniProt Q9BUB5); test: ICKP radiometric kinase assay; type: biochemical; settings: read-out: % AR (% kinase activity remaining)
p38 delta = p38 delta (Homo sapiens, UniProt O15264); test: ICKP radiometric kinase assay; type: biochemical; settings: read-out: % AR (% kinase activity remaining)
BRSK1 = BRSK1 (Homo sapiens, UniProt Q8TDC3); test: ICKP radiometric kinase assay; type: biochemical; settings: read-out: % AR (% kinase activity remaining)
MINK1 = MINK1 (Homo sapiens, UniProt Q8N4C8); test: ICKP radiometric kinase assay; type: biochemical; settings: read-out: % AR (% kinase activity remaining)
EPH-B4 = EPH-B4 (Homo sapiens, UniProt P54760); test: ICKP radiometric kinase assay; type: biochemical; settings: read-out: % AR (% kinase activity remaining)
Src = Src (Homo sapiens, UniProt P12931); test: ICKP radiometric kinase assay; type: biochemical; settings: read-out: % AR (% kinase activity remaining)
PIM2 = PIM2 (Homo sapiens, UniProt Q9P1W9); test: ICKP radiometric kinase assay; type: biochemical; settings: read-out: % AR (% kinase activity remaining)
NEK2a = NEK2a (Homo sapiens, UniProt P51955); test: ICKP radiometric kinase assay; type: biochemical; settings: read-out: % AR (% kinase activity remaining)
IRAK1 = IRAK1 (Homo sapiens, UniProt P51617); test: ICKP radiometric kinase assay; type: biochemical; settings: read-out: % AR (% kinase activity remaining)
MARK2 = MARK2 (Homo sapiens, UniProt Q7KZI7); test: ICKP radiometric kinase assay; type: biochemical; settings: read-out: % AR (% kinase activity remaining)
SmMLCK = SmMLCK (Homo sapiens, UniProt Q15746); test: ICKP radiometric kinase assay; type: biochemical; settings: for remaining activity at 1 µM: read-out: % AR (% kinase activity remaining)
Lck = Lck (Homo sapiens, UniProt P06239); test: ICKP radiometric kinase assay; type: biochemical; settings: read-out: % AR (% kinase activity remaining)
AMPK (hum) = test: ICKP radiometric kinase assay; type: biochemical, human; settings: 1 μM
PRK2 = PRK2 (Homo sapiens, UniProt Q16513); test: ICKP radiometric kinase assay; type: biochemical; settings: read-out: % AR (% kinase activity remaining)
YES1 = YES1 (Homo sapiens, UniProt P07947); test: ICKP radiometric kinase assay; type: biochemical; settings: read-out: % AR (% kinase activity remaining)
NUAK1 = NUAK1 (Homo sapiens, UniProt O60285); test: ICKP radiometric kinase assay; type: biochemical; settings: read-out: % AR (% kinase activity remaining)
CDK9-Cyclin T1 = CDK9-Cyclin T1 (Homo sapiens, UniProt P50750); test: ICKP radiometric kinase assay; type: biochemical; settings: read-out: % AR (% kinase activity remaining)
MARK4 = MARK4 (Homo sapiens, UniProt Q96L34); test: ICKP radiometric kinase assay; type: biochemical; settings: read-out: % AR (% kinase activity remaining)
MLK1 = MLK1 (Homo sapiens, UniProt P80192); test: ICKP radiometric kinase assay; type: biochemical; settings: read-out: % AR (% kinase activity remaining)
EPH-B1 = EPH-B1 (Homo sapiens, UniProt P54762); test: ICKP radiometric kinase assay; type: biochemical; settings: read-out: % AR (% kinase activity remaining)
PDK1 = PDK1 (Homo sapiens, UniProt O15530); test: ICKP radiometric kinase assay; type: biochemical; settings: read-out: % AR (% kinase activity remaining)
BTK = BTK (Homo sapiens, UniProt Q06187); test: ICKP radiometric kinase assay; type: biochemical; settings: read-out: % AR (% kinase activity remaining)
PDGFRA = PDGFRA (Homo sapiens, UniProt P16234); test: ICKP radiometric kinase assay; type: biochemical; settings: read-out: % AR (% kinase activity remaining)
CSK = CSK (Homo sapiens, UniProt P41240); test: ICKP radiometric kinase assay; type: biochemical; settings: read-out: % AR (% kinase activity remaining)
MAPKAP-K3 = MAPKAP-K3 (Homo sapiens, UniProt Q16644); test: ICKP radiometric kinase assay; type: biochemical; settings: read-out: % AR (% kinase activity remaining)
MELK = MELK (Homo sapiens, UniProt Q14680); test: ICKP radiometric kinase assay; type: biochemical; settings: for remaining activity at 1 µM: read-out: % AR (% kinase activity remaining)
MAPKAP-K2 = MAPKAP-K2 (Homo sapiens, UniProt P49137); test: ICKP radiometric kinase assay; type: biochemical; settings: read-out: % AR (% kinase activity remaining)
[1] = HCC70, 72 h, read-out: 3-day antiproliferative IC50
[2] = HCC70, 168 h, read-out: 7-day antiproliferative IC50

Sequence of MELK (Q14680 whole entry): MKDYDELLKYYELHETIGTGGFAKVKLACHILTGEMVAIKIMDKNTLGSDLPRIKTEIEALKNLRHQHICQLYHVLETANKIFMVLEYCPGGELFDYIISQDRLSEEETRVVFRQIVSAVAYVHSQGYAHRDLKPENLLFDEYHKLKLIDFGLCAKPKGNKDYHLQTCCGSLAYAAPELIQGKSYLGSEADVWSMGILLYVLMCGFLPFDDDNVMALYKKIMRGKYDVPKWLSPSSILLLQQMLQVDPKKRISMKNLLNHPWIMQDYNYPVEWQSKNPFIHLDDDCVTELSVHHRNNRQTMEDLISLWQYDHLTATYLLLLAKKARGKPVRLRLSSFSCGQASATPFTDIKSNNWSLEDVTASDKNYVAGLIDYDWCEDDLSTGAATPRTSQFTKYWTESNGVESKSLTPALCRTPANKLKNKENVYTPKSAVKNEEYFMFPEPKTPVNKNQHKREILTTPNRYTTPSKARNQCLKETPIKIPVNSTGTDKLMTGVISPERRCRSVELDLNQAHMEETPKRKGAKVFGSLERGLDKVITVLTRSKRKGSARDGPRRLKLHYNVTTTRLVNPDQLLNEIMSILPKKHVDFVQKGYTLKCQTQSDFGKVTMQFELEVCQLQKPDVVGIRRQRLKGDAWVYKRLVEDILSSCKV
Sequence of p38 delta (O15264 whole entry): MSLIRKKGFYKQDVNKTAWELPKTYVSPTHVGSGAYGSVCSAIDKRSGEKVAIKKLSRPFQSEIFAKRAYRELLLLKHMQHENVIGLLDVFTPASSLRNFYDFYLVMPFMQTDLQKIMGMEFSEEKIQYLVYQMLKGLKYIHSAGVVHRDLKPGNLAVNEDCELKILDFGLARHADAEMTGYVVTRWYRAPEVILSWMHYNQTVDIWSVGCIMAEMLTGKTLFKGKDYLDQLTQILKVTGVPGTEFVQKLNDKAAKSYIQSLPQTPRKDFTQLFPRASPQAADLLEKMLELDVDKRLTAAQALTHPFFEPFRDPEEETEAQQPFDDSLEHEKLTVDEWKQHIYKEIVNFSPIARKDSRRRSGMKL
Sequence of NEK2a (P51955 whole entry): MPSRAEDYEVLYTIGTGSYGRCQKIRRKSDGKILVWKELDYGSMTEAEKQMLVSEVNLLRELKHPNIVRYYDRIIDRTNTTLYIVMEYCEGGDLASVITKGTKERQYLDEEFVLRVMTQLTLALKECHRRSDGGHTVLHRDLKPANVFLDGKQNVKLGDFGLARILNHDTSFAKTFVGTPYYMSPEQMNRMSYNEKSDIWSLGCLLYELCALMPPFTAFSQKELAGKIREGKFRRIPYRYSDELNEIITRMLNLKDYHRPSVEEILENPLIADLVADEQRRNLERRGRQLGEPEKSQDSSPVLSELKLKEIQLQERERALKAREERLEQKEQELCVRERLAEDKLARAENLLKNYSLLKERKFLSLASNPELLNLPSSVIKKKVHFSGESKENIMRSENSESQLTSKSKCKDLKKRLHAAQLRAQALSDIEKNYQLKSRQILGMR
Sequence of CSK (P41240 whole entry): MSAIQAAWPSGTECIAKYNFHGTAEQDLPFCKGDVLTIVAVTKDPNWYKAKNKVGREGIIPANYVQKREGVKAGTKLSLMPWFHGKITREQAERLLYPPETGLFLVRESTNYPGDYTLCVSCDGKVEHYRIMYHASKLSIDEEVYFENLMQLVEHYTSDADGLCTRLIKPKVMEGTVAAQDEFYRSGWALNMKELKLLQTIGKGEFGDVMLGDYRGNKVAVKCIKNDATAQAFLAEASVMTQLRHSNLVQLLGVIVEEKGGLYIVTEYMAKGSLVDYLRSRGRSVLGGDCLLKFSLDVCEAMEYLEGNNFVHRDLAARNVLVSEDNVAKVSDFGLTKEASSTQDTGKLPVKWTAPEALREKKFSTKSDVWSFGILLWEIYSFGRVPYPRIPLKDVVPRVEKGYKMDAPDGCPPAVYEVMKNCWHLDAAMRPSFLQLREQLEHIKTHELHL
Sequence of MAPKAP-K2 (P49137 whole entry): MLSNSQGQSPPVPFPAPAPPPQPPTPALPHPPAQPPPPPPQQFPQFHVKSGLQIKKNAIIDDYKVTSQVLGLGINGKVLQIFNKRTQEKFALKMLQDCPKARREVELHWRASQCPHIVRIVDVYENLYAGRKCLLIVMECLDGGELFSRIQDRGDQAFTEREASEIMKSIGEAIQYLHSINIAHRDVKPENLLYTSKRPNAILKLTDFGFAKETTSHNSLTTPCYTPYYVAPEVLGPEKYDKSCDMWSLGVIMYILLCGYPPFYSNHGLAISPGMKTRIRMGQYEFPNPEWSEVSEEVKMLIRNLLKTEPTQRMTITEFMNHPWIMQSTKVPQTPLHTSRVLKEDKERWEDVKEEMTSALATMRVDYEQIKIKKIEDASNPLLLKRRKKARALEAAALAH
Sequence of MAPKAP-K3 (Q16644 whole entry): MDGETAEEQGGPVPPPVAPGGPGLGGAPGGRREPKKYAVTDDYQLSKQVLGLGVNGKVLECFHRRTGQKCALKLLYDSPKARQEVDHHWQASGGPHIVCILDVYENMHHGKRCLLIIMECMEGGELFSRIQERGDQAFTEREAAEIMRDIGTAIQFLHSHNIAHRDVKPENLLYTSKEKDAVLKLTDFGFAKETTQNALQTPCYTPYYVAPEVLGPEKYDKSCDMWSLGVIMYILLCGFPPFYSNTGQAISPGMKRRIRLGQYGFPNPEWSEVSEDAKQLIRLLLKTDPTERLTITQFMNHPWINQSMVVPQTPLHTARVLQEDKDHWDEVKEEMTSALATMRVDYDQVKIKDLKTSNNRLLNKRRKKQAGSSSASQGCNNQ
Sequence of PDGFRA (P16234 24-1089): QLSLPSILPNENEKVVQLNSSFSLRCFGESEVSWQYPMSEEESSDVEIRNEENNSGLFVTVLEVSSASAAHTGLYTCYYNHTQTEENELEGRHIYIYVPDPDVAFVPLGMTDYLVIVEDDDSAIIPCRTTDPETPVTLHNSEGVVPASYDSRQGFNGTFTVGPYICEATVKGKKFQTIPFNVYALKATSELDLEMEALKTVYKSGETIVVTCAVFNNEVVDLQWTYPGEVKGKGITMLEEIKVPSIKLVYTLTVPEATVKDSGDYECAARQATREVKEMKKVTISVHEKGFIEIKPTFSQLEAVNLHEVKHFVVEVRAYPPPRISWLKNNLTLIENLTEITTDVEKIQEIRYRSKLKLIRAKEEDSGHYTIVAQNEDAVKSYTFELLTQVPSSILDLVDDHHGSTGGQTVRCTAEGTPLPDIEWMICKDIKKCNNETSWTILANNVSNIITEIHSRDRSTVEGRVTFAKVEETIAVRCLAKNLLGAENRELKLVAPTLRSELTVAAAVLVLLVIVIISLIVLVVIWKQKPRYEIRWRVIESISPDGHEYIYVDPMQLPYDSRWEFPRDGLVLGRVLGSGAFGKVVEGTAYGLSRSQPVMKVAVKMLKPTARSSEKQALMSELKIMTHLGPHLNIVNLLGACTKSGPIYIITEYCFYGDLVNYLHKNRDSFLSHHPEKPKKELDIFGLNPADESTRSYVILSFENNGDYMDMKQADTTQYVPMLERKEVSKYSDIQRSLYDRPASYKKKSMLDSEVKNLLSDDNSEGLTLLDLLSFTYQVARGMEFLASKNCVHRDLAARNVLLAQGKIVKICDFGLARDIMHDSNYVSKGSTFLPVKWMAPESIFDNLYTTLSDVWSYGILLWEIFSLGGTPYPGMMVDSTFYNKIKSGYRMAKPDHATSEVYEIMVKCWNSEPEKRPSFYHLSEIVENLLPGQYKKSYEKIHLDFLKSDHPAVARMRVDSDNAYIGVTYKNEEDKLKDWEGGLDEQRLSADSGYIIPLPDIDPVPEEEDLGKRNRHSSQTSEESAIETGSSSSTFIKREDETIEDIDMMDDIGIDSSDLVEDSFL
Sequence of MST4 (Q9P289 whole entry): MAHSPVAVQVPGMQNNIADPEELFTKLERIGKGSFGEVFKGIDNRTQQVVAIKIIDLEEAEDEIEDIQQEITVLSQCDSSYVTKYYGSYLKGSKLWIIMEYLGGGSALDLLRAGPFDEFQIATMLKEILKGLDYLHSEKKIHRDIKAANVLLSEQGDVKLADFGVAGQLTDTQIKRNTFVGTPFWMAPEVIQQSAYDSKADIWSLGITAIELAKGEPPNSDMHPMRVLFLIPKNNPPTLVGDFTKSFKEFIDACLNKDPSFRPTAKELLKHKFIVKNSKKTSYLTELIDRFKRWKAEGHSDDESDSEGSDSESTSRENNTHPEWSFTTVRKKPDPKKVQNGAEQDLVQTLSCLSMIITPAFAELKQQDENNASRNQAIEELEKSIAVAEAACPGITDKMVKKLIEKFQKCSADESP
Sequence of MNK1 (Q9BUB5 whole entry): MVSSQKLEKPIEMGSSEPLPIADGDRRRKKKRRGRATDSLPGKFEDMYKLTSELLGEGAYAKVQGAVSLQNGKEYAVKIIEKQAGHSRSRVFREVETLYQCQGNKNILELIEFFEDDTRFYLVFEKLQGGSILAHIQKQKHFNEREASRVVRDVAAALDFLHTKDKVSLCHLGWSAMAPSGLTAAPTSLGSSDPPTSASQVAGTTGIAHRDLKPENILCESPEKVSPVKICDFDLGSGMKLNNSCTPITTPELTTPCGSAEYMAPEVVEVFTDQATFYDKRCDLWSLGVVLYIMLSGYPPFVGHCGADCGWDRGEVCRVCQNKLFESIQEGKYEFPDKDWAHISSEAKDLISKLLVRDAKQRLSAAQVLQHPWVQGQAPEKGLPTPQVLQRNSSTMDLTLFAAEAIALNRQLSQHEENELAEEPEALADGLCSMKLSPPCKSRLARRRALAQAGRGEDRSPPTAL
Sequence of TAK1 (O43318 1-303 limits assumed): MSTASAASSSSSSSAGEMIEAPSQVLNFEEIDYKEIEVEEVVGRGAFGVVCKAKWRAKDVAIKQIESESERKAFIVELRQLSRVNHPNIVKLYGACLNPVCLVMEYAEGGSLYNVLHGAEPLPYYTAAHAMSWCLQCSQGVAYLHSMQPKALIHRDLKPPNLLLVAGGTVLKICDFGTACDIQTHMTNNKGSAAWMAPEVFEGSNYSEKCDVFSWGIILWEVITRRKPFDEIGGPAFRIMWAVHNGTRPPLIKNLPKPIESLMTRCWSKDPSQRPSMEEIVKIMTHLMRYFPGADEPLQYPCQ

CC(=O)c1cnc2ccc(-c3cc(Cl)c(O)c(Cl)c3)nc2c1N[C@H]1CC[C@H](CN(C)C)CC1 [OTSSP167]
pIC50 (HCC70; [1]): 7.47 | pIC50 (HCC70; [2]): 7.68 | remaining activity at 1 µM (GSK3 beta): 0% | remaining activity at 1 µM (WNK1): 111% | remaining activity at 1 µM (TAK1): 1% | remaining activity at 1 µM (MNK2): 13% | remaining activity at 1 µM (HIPK2): 2% | remaining activity at 1 µM (CDK2-Cyclin A): 2% | remaining activity at 1 µM (HER4): 4% | remaining activity at 1 µM (MSK1): 5% | remaining activity at 1 µM (MST4): 5% | remaining activity at 1 µM (ZAP70): 78% | remaining activity at 1 µM (SIK3): 4% | remaining activity at 1 µM (HIPK3): 0% | remaining activity at 1 µM (ABL): 1% | remaining activity at 1 µM (VEGFR1): 1% | remaining activity at 1 µM (TLK1): 58% | remaining activity at 1 µM (MNK1): 28% | remaining activity at 1 µM (p38 delta): 4% | remaining activity at 1 µM (BRSK1): 2% | remaining activity at 1 µM (MINK1): 2% | remaining activity at 1 µM (EPH-B4): 2% | remaining activity at 1 µM (Src): 5% | remaining activity at 1 µM (PIM2): 0% | remaining activity at 1 µM (NEK2a): 59% | remaining activity at 1 µM (IRAK1): 3% | remaining activity at 1 µM (MARK2): 23% | remaining activity at 1 µM (SmMLCK): 6% | remaining activity at 1 µM (Lck): 0% | % AR (% kinase activity remaining) (AMPK (hum)): 1% | remaining activity at 1 µM (PRK2): 2% | remaining activity at 1 µM (YES1): 18% | remaining activity at 1 µM (NUAK1): 0% | remaining activity at 1 µM (CDK9-Cyclin T1): 4% | remaining activity at 1 µM (MARK4): 14% | remaining activity at 1 µM (MLK1): 1% | remaining activity at 1 µM (EPH-B1): 11% | remaining activity at 1 µM (PDK1): 4% | remaining activity at 1 µM (BTK): 7% | remaining activity at 1 µM (PDGFRA): 20% | remaining activity at 1 µM (CSK): 9% | remaining activity at 1 µM (MAPKAP-K3): 94% | remaining activity at 1 µM (MELK): 6% | remaining activity at 1 µM (MAPKAP-K2): 14%

CN(C)C[C@H]1CC[C@H](N2C(=O)NCc3cnc4ccc(-c5cc(Cl)c(O)c(Cl)c5)cc4c32)CC1 [HTH-01-091, 9-(3,5-dichloro-4-hydroxyphenyl)-1-(trans-4-((dimethylamino)methyl)cyclohexyl)-3,4-dihydropyrimido[5,4 c]quinolin-2(1H)-one]
pIC50 (HCC70; [1]): 5.06 | pIC50 (HCC70; [2]): 5.61 | remaining activity at 1 µM (GSK3 beta): 86% | remaining activity at 1 µM (WNK1): 101% | remaining activity at 1 µM (TAK1): 22% | remaining activity at 1 µM (MNK2): 103% | remaining activity at 1 µM (HIPK2): 13% | remaining activity at 1 µM (CDK2-Cyclin A): 67% | remaining activity at 1 µM (HER4): 84% | remaining activity at 1 µM (MSK1): 65% | remaining activity at 1 µM (MST4): 96% | remaining activity at 1 µM (ZAP70): 98% | remaining activity at 1 µM (SIK3): 83% | remaining activity at 1 µM (HIPK3): 25% | remaining activity at 1 µM (ABL): 70% | remaining activity at 1 µM (VEGFR1): 43% | remaining activity at 1 µM (TLK1): 95% | remaining activity at 1 µM (MNK1): 109% | remaining activity at 1 µM (p38 delta): 89% | remaining activity at 1 µM (BRSK1): 85% | remaining activity at 1 µM (MINK1): 38% | remaining activity at 1 µM (EPH-B4): 104% | remaining activity at 1 µM (Src): 54% | remaining activity at 1 µM (PIM2): 2% | remaining activity at 1 µM (NEK2a): 100% | remaining activity at 1 µM (IRAK1): 86% | remaining activity at 1 µM (MARK2): 94% | pIC50 (SmMLCK; radioactive filter-binding assay provided by the ICKP, read-out: Enzymatic IC50 SmMLCK): 6.96 | remaining activity at 1 µM (SmMLCK): 8% | remaining activity at 1 µM (Lck): 35% | % AR (% kinase activity remaining) (AMPK (hum)): 34% | remaining activity at 1 µM (PRK2): 77% | remaining activity at 1 µM (YES1): 32% | remaining activity at 1 µM (NUAK1): 66% | remaining activity at 1 µM (CDK9-Cyclin T1): 92% | remaining activity at 1 µM (MARK4): 95% | remaining activity at 1 µM (MLK1): 35% | remaining activity at 1 µM (EPH-B1): 122% | remaining activity at 1 µM (PDK1): 102% | remaining activity at 1 µM (BTK): 45% | remaining activity at 1 µM (PDGFRA): 35% | remaining activity at 1 µM (CSK): 76% | remaining activity at 1 µM (MAPKAP-K3): 89% | remaining activity at 1 µM (MELK): 13% | pIC50 (MELK; radioactive filter-binding assay provided by the ICKP, read-out: Enzymatic IC50 MELK): 7.82 | remaining activity at 1 µM (MAPKAP-K2): 98%
